Laboratory results reported in US10815219B2, “2,4-diaminoquinazoline derivatives for inhibiting endoplasmic reticulum (ER) stress” (The Board of Regents of the University of Oklahoma, priority 2017, dated 2020).

How the values were obtained:
INS1 and INS2 mRNA = experiment: qRT-PCR of insulin genes in Tm-treated INS-1 cells; assay type: cell-based, rat; conditions: Tm 0.1 μg/mL, 9c 20 μM, 24 h, FIG. 5A, B
Excerpt: ER stress also impairs the most important function of β cells: the biosynthesis and secretion of insulin. Multiple steps of insulin synthesis and secretion are impaired under ER stress; they include insulin gene transcription, insulin mRNA stability, protein translation, and the insulin protein secretory process. First, we examined whether compound 9c could rescue Tm-suppressed mRNA levels of insulin genes. […] Second, we examined whether compound 9c affects the expression of β cell transcription factors PDX1 and MafA, which control β cell identity and the expression of insulin genes. Chronic exposure to supraphysiologic concentrations of glucose and its associated ER stress cause the down-regulation of expression of PDX1 and MafA. Consistent with this notion, Tm decreased the levels of PDX1 and MafA mRNA expression levels in INS-1 cells. […] Next, we explored whether compound 9c re-establishes Tm-impaired glucose-stimulated insulin secretion (GSIS).
INS-1 cells were seeded at 4×10^5 cells/well in 6-well plates and treated with compounds for the indicated times. Total RNA was extracted using TRIzol reagent (Invitrogen, Carlsbad, Calif.) according to the manufacturer's protocol, and 2 μg of total RNA was reverse transcribed using a Superscript kit (Invitrogen). […]

ATF4 and CHOP mRNA = experiment: qRT-PCR of ATF4 and CHOP in Tm-treated INS-1 cells; assay type: cell-based, rat; conditions: Tm 0.1 μg/mL, 9c 20 μM, FIG. 8A, B
Excerpt: We then determined the effect of 9c on the activation of the PERK pathway in β cells under ER stress. Activated PERK phosphorylates eukaryotic translation initiator factor 2a (eIF2α), which in turn attenuates general protein synthesis to relieve ER load. EIF2α phosphorylation also allows the selective translation of ATF4 mRNA, which encodes a transcription factor that induces the expression of the pro-apoptotic gene C/EBP-homologous protein (CHOP). Thus, we used ATF4 and CHOP expression levels as markers of PERK pathway activation. […] Together, our results that 9c inhibited the ER stress-mediated activation of all three UPR pathways indicate that 9c protects β cell survival by alleviating ER stress.
(§1) INS-1 cells were seeded at 4×10^5 cells/well in 6-well plates and treated with compounds for the indicated times. Total RNA was extracted using TRIzol reagent (Invitrogen, Carlsbad, Calif.) according to the manufacturer's protocol, and 2 μg of total RNA was reverse transcribed using a Superscript kit (Invitrogen). Real-time PCR was performed in 96-well format using SYBR Select Master Mix (Applied Biosystems, Foster City, Calif.) with an ABI 7500 PCR system (Applied Biosystems). The primer sequences used are shown in U.S. Ser. No. 62/542,408, Aug. 8, […].

INS-1 cells [1] = experiment: INS-1 cell viability after BFA treatment (CellTiter-Glo); assay type: cell-based, rat; conditions: BFA 0.2 μg/mL, 9c 20 μM, 72 h, FIG. 3D
Excerpt: (§2) To rule out the possibility of an ATP-specific (rather than viability) effect of the compounds, we used the MTT assay, which measures the activity of NAD(P)H-dependent cellular oxidoreductase enzymes, as an orthogonal method to measure cell viability. […] To confirm that the protective effect of 9c on β cells is not INS-1 cell-specific, another β cell line, βTC6, was used. […] To determine whether the protective effect of 9c on β cells is specific to Tm-induced stress, we used another ER stressor, BFA, which inhibits a key guanine nucleotide exchange factor essential for the transport of proteins from the ER to the Golgi, to treat INS-1 cells.
INS-1 cells or βTC6 cells were seeded at 3×10^3 cells/well in a 384-well plate and treated with compounds at the indicated concentrations. After 3 d treatment, the medium was aspirated and 20 μL/well of CellTiter-Glo reagent (Promega, WI, USA) was added for the detection of intracellular ATP levels. Cell viability was measured with an EnVision multilabel plate reader (PerkinElmer, MA, USA).

Bip and GRP94 mRNA = experiment: qRT-PCR of Bip and GRP94 in Tm-treated INS-1 cells; assay type: cell-based, rat; conditions: Tm 0.1 μg/mL, 9c 20 μM, FIG. 7A, B
Method: We then asked whether 9c affects the activation of ATF6 in β cells under ER stress. Activated ATF6 acts as a homodimer or as an ATF6-XBP1s heterodimer to control the up-regulation of select UPR target genes including the chaperone proteins BiP and GRP94. We evaluated the effect of 9c on the mRNA levels of chaperones Bip and GRP94 in β cells in the presence of Tm.
as §1

INS-1 cells [2] = experiment: MTT viability assay, INS-1 cells treated with Tm; assay type: cell-based, rat; conditions: Tm 0.1 μg/mL, 72 h, FIG. 3A
Excerpt: as §2
(§3) INS-1 cells or βTC6 cells were seeded at 3×10^3 cells/well in a 384-well plate and treated with compounds at the indicated concentrations. After 3 d treatment, the medium was aspirated and 10 μl of MTT reagent (Cayman Chemical, MI, USA, prepared according to manufacturer's instruction) to each well was added and mixed gently for one minute on an orbital shaker. The cells were then incubated for three hours at 37° C. in a CO2 incubator. After incubation, add 100 μl of crystal dissolving solution to each well, and incubate for 4 hours in a 37° C. CO2 incubator. Viability will be measured for the absorbance to each sample at 570 nm using EnVision multilabel plate reader (PerkinElmer, MA, USA).

βTC6 cells = experiment: βTC6 cell viability after Tm treatment (MTT); assay type: cell-based; conditions: Tm 0.25 μg/mL, 72 h, FIG. 3C
Excerpt: as §2, §3

[3] = test system: cleaved caspase-3 and PARP; experiment: Western blotting of cleaved caspase-3 and cleaved PARP in Tm-treated INS-1 cells; assay type: cell-based, rat; conditions: Tm 0.1 μg/mL, 9c 20 μM, 24 h, FIG. 4A
Method: To determine whether the increase in cell viability following treatment with 9c was caused by a suppression of apoptotic cell death, levels of cleaved caspase-3 and cleaved PARP were assessed by Western blotting. Caspase-3, a member of executioner caspases, plays essential roles in initiating apoptotic signaling and executing the final stages of cell death as it is responsible for the proteolytic cleavage of many key proteins, such as the nuclear enzyme poly (ADP-ribose) polymerase (PARP) which is a family of proteins involved in a number of cellular processes involving DNA repair and cell death. […] However, upon severe ER stress, caspase 3 undergoes proteolytic cleavage to produce two subunits that dimerize to form the active enzyme, which in turns cleaves PARP.
INS-1 cells were seeded in 60-mm dishes at 8×10^5 cells/dish and treated for the indicated times. Cells were then washed with PBS and lysed with lysis buffer (Cell Signaling Technology, Danvers, Mass.) containing EDTA (Thermo, IL) and phosphatase inhibitors (Thermo). Aliquots of 20 μg total protein were separated on 7% SDS-PAGE gels (Life Technologies) and transferred to PVDF membranes (Life Technologies). The membranes were probed with primary antibodies followed by the appropriate HRP-conjugated secondary antibodies (goat anti-rabbit IgG and goat anti-mouse IgG, 1:3000; Santa Cruz Biotechnology, CA, USA). […]

For COc1ccc(CNc2nc(N3CCCCC3CO)nc3ccccc23)cc1 (racemic) [Compound 9c, (1-(4-((4-methoxybenzyl)amino)quinazolin-2-yl)piperidin-2-yl)methanol], the “mRNA levels of insulin genes INS1 and INS2” value (INS1 and INS2 mRNA) was “completely rescued”, the “ATF4 and CHOP mRNA levels” value (ATF4 and CHOP mRNA) was “decrease in both their levels” and the “viability of INS-1 cells against BFA” value (INS-1 cells [1]) was “protected INS-1 cells against BFA”. For the same compound, the “Bip and GRP94 mRNA levels” value (Bip and GRP94 mRNA) was “almost completely suppressed”, the “viability of INS-1 cells (MTT)” value (INS-1 cells [2]) was “increase in viability of INS-1 cells” and the “viability of βTC6 cells (MTT, NAD(P)H-dependent oxidoreductase activity)” value (βTC6 cells) was “rescued the viability of βTC6 cells in a dose-dependent manner”. The “cleaved caspase-3 and cleaved PARP protein levels” value [3] was “significantly reversed Tm-induced cleavage of both caspase-3 and PARP”.
